This is an account of results in ChEMBL document CHEMBL1201862, “PubChem BioAssay data set” (2004).

The source made the active and inactive calls.

Data set [1] concerns Streptococcus sp. 'group A'. The data set is described as follows: growth inhibition of control SK(-) GAS strain, dose response, counter-screen for streptokinase expression inhibitor project, luminescence, kanamycin, BacTiterGlo, confirmation (AID 1900). The data set is classed as functional, organism-based. In general terms: The purpose of a counterscreen is to sort out artefacts and off-target activity.

A further data set addresses T1, Streptokinase A (Streptococcus pyogenes serotype M1, UniProt P10520).
T1 sequence (P10520 whole entry): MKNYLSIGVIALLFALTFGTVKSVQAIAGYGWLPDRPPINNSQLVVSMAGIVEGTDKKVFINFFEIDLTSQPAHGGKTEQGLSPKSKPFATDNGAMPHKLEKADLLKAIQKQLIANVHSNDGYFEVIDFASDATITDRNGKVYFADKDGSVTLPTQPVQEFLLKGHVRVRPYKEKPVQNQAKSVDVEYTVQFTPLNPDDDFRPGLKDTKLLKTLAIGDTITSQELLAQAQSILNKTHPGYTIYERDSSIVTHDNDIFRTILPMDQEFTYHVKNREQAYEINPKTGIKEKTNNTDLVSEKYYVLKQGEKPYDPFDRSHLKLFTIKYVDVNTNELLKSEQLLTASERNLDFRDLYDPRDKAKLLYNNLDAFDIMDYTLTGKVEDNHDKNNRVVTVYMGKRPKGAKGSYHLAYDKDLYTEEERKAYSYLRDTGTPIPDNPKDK
The data set is described as follows: S. pyogenes streptokinase expression inhibitors, potency, dose response, plasminogen activation absorbance, OD405 (AID 1914).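 Further: secreted streptokinase activity via plasminogen activation per viability signal from cell pellet.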 The data set is classed as functional, Streptococcus pyogenes M1 GAS.

The subject of a further data set is Streptococcus. Put plainly: Group A Streptococcus viability loss, dose response, counter-screen for streptokinase expression inhibitor project, luminescence, BacTiterGlo (AID 1915).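 Further: potency for reduction of bacterial viability or growth.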 In kind it is functional, organism-based.
Another data set addresses T2, Bcl-2-related protein A1 (Mus musculus, UniProt Q07440).
T2 sequence (Q07440 whole entry): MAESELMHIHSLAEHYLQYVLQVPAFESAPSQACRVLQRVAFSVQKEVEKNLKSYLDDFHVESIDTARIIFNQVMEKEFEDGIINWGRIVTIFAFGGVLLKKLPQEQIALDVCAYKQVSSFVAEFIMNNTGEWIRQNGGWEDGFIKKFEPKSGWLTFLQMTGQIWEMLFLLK
In kind it is functional.

For data set [2], the target named is T3, Ubiquitin-conjugating enzyme E2 N (Homo sapiens, UniProt P61088).
T3 sequence (P61088 whole entry): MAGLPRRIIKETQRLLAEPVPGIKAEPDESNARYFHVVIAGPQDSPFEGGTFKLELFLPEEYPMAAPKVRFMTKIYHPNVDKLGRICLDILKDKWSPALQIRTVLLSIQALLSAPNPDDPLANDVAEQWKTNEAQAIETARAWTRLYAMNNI
The data set is classed as functional.

The target of data set [3] is T3, Ubiquitin-conjugating enzyme E2 N. The data set is classed as functional. This is another data set of the same source.
Data set [4] deals with Glyceraldehyde-3-phosphate dehydrogenase (Homo sapiens, UniProt P04406).
Sequence of Glyceraldehyde-3-phosphate dehydrogenase (P04406 whole entry): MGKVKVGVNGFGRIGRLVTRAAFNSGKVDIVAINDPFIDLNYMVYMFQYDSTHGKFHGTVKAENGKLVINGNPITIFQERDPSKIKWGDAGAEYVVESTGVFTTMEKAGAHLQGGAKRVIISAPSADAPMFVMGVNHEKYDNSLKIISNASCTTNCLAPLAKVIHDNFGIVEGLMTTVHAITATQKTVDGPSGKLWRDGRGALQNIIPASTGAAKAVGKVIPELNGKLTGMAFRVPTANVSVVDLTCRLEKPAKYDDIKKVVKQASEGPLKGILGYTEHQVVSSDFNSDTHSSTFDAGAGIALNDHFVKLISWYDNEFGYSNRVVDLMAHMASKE
Data set [5] addresses T4, Alkaline phosphatase, tissue-nonspecific isozyme (Homo sapiens, UniProt P05186).
T4 sequence (P05186 whole entry): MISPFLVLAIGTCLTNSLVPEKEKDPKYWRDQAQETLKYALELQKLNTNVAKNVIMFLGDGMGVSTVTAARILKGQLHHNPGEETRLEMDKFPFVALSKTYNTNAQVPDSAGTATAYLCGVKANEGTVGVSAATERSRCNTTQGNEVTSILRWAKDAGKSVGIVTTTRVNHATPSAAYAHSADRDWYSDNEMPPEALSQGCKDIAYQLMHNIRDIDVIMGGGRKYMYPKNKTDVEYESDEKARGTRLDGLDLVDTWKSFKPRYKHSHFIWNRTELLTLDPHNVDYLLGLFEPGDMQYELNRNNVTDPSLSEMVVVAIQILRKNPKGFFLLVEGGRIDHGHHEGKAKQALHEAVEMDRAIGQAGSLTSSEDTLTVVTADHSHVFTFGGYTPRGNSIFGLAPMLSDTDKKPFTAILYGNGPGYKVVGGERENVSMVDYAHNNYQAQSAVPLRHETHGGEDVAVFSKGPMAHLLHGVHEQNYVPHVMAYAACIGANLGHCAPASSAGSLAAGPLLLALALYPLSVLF
The data set is described as follows: human TNAP enzyme inhibitors, SAR follow-up, biochemical, luminescent, dose response (AID 1056).

Data set [6] in a line: THP-1 cell cytotoxicity, dose response, cytotoxicity control for non-replicating M. tuberculosis project (AID 489025). In kind it is functional.
Data set [7] has as its target FAD-linked sulfhydryl oxidase ALR (Homo sapiens, UniProt P55789). The data set is described as follows: inhibitors of human ALR sulfhydryl oxidase, dose response, biochemical, H2O2 detection, luminescence, cherry-pick (AID 493248).
A short description of data set [8]: cells. In kind it is functional.
The target of the next data set is T5, Hexokinase HKDC1 (Homo sapiens, UniProt Q2TB90).
T5 sequence (Q2TB90 whole entry): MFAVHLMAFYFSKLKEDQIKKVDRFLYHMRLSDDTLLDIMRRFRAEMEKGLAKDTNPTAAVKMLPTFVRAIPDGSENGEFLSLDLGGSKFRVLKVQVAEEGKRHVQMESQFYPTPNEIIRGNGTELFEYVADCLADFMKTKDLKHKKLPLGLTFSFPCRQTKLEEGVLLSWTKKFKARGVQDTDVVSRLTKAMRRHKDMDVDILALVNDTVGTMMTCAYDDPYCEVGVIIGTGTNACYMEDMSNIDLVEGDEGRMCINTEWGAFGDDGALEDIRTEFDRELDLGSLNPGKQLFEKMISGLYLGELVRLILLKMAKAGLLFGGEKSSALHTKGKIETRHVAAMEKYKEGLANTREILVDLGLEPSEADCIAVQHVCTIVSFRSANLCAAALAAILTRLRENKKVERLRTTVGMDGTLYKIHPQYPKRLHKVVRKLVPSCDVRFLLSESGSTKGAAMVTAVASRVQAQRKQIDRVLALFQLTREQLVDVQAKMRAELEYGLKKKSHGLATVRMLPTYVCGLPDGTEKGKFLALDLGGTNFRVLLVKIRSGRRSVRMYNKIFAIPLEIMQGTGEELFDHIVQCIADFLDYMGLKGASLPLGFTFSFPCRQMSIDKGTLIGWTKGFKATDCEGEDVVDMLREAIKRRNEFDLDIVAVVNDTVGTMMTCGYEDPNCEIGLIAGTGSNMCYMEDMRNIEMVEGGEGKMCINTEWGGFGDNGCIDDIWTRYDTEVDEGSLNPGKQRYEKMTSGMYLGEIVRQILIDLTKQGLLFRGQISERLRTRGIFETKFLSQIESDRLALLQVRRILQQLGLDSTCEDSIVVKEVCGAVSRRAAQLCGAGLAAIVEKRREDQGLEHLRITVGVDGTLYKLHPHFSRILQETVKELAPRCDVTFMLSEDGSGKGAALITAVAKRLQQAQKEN
Put plainly: HKDC1 hexokinase inhibitors, dose response, biochemical, W721R variant (AID 504729). The data set is classed as functional.

The nature of data set [9]: HEp-2 cell cytotoxicity, dose response, cytotoxicity control for RSV inhibitor project, HTS (AID 2410). In kind it is functional. Particulars: human respiratory syncytial virus.
Data set [10] in a line: cells.
The target in another data set is T6, Coagulation factor XII (Homo sapiens, UniProt P00748).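 Further: activated factor XIIa alpha cleaving a fluorogenic AMC peptide substrate; inhibitor potency from loss of enzyme activity.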
T6 sequence (P00748 whole entry): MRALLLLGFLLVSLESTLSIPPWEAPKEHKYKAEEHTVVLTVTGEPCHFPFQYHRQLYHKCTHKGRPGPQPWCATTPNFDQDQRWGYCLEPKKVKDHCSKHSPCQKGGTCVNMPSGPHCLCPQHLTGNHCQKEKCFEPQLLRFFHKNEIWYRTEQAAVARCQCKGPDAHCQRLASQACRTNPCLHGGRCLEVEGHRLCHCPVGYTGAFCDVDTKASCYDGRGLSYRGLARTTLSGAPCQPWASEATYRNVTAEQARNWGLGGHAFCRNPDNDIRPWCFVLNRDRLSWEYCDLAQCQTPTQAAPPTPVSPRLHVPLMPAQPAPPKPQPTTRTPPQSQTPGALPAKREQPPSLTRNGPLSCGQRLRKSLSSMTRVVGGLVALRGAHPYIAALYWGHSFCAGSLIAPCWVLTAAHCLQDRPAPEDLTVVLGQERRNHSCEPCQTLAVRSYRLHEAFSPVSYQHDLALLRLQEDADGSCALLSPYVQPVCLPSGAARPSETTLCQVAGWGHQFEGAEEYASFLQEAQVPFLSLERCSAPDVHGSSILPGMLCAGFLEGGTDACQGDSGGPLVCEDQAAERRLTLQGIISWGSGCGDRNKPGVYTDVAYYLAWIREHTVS
In kind it is functional.

The next data set concerns the target Nonstructural protein 1 (Influenza A virus, UniProt Q194T2). In kind it is functional, Influenza A virus (A/California/07/2009(H1N1)).
In data set [11] the target is Voltage-dependent T-type calcium channel subunit alpha-1H (Homo sapiens, UniProt O95180). In kind it is functional.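 Further: channel activity triggered by adding a high calcium stimulation buffer.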
Sequence of Voltage-dependent T-type calcium channel subunit alpha-1H (O95180 whole entry): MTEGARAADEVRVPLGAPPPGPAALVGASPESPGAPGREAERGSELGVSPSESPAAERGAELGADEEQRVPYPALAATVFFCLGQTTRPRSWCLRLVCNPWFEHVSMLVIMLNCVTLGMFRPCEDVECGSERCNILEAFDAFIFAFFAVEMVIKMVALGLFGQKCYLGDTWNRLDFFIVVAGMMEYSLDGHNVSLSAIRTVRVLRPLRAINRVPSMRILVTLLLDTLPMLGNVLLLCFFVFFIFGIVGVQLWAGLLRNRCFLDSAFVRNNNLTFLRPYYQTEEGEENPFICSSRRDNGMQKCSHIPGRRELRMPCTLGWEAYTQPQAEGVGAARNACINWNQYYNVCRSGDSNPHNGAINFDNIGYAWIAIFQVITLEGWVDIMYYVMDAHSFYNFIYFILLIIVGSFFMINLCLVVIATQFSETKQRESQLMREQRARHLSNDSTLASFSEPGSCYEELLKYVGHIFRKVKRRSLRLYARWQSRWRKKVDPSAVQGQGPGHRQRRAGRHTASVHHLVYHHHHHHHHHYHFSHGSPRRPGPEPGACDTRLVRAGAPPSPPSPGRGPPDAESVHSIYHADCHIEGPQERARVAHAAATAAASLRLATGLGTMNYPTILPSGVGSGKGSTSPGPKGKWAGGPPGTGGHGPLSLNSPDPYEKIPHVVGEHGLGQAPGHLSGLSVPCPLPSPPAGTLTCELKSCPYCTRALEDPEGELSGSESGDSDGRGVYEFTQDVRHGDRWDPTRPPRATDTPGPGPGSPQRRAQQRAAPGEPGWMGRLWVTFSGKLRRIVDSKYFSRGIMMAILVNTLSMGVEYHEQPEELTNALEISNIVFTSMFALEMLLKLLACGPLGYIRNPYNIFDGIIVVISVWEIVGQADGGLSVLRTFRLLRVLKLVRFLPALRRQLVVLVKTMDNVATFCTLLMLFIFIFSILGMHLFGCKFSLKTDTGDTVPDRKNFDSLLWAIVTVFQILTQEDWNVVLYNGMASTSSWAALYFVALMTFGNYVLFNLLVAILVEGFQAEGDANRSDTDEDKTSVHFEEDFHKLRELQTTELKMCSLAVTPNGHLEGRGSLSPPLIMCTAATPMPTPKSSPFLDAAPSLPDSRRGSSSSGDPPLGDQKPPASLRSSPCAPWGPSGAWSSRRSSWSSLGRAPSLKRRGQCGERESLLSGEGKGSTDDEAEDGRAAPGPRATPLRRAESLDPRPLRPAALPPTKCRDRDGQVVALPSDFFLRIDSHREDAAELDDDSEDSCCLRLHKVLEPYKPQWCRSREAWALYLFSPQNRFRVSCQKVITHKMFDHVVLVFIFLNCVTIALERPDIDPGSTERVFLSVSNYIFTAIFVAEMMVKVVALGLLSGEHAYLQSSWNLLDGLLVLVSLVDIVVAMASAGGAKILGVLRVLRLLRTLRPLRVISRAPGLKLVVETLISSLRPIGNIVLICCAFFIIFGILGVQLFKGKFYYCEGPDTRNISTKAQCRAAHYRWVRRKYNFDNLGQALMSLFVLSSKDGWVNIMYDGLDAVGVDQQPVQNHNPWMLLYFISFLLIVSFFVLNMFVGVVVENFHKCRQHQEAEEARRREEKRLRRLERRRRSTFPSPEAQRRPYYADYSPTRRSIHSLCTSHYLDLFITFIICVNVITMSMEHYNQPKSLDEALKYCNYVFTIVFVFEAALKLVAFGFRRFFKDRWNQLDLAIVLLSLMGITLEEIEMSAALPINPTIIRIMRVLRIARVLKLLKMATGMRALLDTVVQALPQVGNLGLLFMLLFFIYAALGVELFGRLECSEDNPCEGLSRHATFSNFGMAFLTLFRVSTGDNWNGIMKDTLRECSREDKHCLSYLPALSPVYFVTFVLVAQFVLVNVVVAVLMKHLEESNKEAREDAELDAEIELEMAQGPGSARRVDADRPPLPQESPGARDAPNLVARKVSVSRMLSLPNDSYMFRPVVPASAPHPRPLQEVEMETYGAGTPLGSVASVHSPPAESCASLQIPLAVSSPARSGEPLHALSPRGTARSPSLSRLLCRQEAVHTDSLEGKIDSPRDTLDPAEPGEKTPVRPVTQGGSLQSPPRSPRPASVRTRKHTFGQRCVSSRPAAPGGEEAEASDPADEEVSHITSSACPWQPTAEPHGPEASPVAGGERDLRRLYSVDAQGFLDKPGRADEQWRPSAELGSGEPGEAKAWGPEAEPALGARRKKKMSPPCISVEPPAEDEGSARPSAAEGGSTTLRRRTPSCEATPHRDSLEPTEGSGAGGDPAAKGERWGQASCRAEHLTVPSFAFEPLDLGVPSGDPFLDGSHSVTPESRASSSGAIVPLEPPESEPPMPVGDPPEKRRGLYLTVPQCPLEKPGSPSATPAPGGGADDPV
In data set [12] the target is T7, Calpain-2 catalytic subunit (Sus scrofa, UniProt P43367).
T7 sequence (P43367 whole entry): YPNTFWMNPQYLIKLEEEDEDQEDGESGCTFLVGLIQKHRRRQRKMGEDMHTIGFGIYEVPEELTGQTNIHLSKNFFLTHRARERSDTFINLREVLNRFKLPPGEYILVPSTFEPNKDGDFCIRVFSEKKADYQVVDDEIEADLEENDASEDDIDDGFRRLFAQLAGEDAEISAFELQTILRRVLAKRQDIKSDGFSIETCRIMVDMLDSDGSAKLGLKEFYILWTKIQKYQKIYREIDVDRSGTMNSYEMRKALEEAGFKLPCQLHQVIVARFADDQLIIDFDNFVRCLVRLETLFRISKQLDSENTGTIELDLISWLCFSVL
The data set is described as follows: pig calpain II inhibitor potency, dose response, biochemical, fluorogenic peptide substrate (AID 1420). The data set is classed as functional.

The target of the next data set is Cytochrome P450 2D6 (Homo sapiens, UniProt P10635).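 Further: CYP2D6 member of a cytochrome P450 panel assay.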
Sequence of Cytochrome P450 2D6 (P10635 whole entry): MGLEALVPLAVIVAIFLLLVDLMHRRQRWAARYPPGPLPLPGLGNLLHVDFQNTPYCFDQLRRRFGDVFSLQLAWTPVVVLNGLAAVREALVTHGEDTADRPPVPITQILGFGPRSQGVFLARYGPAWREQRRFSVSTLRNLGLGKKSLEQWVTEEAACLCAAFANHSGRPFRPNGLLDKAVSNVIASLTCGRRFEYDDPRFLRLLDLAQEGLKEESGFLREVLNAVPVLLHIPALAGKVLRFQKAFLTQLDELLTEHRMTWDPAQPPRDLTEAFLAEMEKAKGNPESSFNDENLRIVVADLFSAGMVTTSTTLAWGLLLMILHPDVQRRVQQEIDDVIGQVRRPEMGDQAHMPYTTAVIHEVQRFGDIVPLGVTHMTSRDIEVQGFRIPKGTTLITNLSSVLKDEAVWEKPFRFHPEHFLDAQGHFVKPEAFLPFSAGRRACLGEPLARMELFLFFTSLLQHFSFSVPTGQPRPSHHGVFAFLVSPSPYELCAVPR
Data set [13] is described as follows: cells. The data set is classed as functional, cell-based.
The nature of data set [14]: cells. The data set is classed as functional, cell-based. The source holds these as a separate data set.
Another data set concerns the target Cytochrome P450 2C9 (Homo sapiens, UniProt P11712).

In general, EC50 refers to the concentration needed to bring the measured effect to its halfway point. The IC50 is the concentration that gives 50% inhibition. Usually CC50 stands for the concentration giving 50% cytotoxicity. As usually defined, the AC50 is the concentration giving half of the maximal activity seen.

Sequence of Nonstructural protein 1 (Q194T2 whole entry): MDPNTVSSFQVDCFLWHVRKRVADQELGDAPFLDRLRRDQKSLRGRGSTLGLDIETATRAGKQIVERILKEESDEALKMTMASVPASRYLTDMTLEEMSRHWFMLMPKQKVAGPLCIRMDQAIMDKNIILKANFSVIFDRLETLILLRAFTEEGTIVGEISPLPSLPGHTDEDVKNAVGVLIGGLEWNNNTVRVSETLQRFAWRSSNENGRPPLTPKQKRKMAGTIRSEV
Sequence of FAD-linked sulfhydryl oxidase ALR (P55789 whole entry): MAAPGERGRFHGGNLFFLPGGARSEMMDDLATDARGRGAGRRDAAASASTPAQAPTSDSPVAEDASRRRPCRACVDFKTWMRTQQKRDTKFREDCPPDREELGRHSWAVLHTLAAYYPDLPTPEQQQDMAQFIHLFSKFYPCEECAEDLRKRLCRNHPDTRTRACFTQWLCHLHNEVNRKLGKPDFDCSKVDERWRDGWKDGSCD
Sequence of Cytochrome P450 2C9 (P11712 whole entry): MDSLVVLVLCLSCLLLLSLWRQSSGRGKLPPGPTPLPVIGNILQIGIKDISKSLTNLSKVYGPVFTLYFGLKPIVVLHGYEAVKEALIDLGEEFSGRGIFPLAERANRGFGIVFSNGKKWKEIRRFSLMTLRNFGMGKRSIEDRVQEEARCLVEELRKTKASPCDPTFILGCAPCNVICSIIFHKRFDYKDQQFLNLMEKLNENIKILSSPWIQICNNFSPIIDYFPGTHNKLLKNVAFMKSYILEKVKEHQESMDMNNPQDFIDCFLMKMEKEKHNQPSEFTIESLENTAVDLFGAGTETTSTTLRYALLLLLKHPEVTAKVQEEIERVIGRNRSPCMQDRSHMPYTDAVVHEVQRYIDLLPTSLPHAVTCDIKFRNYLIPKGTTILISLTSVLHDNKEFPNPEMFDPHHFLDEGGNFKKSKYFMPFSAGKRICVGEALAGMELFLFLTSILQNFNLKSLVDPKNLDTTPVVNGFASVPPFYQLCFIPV

As for `CC1CC(C)(C)n2c(O)c(/N=N/C(=N)S)c3cccc1c32` (stereo not given), the values for the EC50 (in data set [1]; at Streptokinase A; in the data set on Streptococcus) were 9.25 µM (active), > 150 µM (not active) and > 150 µM (not active), respectively. Also, the results for the IC50 (at Bcl-2-related protein A1; in data set [2]; in [3]) were > 20 µM (inactive), 6.33 µM (active) and 4.95 µM (active), respectively.
For the molecule `O=S(=O)(Nc1cccnc1)c1cc(Cl)cc(Cl)c1O`, the IC50 is > 100 µM (not active) in [4] and > 100 µM (inactive) in [5].
Consider `Cc1ccc(-c2nc3ccccn3c2Nc2ccccc2)o1`, for which the CC50 in data set [6] is > 40 µM (active). Further, the AC50 in data set [7] is 0.235 µM (active). The IC50 in the data set “cells [8]” is 19.7 µM (active).
`CCc1nc2c(c(=O)c3ccccc3n2C)c(=O)n1-c1ccc(F)cc1`: the IC50 on Hexokinase HKDC1 is 7.9 µM (active).
Turning to `COC(=O)C1=C(c2ccc(F)cc2F)C[C@@H]2CC[C@H]1N2C(=O)NCCOc1ccccc1Cl`, the CC50 in data set [9] is 34.5 µM (active). For the same molecule, the IC50 in the data set “cells [10]” is 13.9 µM (active).
In the case of `Cc1ccc2c(C)c(C(=O)Nc3ccc(S(=O)(=O)Nc4onc(C)c4C)cc3)oc2c1`, the CC50 in [9] was 24.4 µM (active). Also, the EC50 is 23.8 µM (active) in data set [1], > 150 µM (not active) on Streptokinase A and > 150 µM (not active) with Streptococcus. The IC50 in the data set “cells [10]” was 24.7 µM (active).
Consider `N#C/C(=N\Nc1ccccc1)C(N)=S`, for which the IC50 on Coagulation factor XII is > 50 µM (inactive).
On to `COc1ccc(NC(=O)CSc2n[nH]c(-c3ccccn3)n2)cc1`, for which the IC50 at Nonstructural protein 1 was 4.25 µM (active).
Take `O=C(CSc1nnc(CCCN2C(=O)c3cccc4cccc(c34)C2=O)n1-c1ccccc1)N1CCCCC1`: the IC50 at Hexokinase HKDC1 is 11.4 µM (active).
`COc1cccc(C(=O)N(Cc2nc(-c3cccc(C)c3)no2)C(C)C)c1OC`: the CC50 in data set [9] is 30.6 µM (active). In addition, in data set [11], the EC50 is 12.7 µM (active). Besides, the IC50 in the data set “cells [10]” was 4.69 µM (active).
As for `O=C(Cc1ccccc1)NC(NC(=S)Nc1cc(Cl)ccc1Cl)C(Cl)(Cl)Cl` (stereo not given), the figures for the IC50 (in data set [12]; at Coagulation factor XII) were > 50 µM (not active) and > 50 µM (inactive), respectively. Further, the AC50 at Cytochrome P450 2D6 was 3.16 µM (inconclusive).
On to `COc1ccc(C(=O)N/N=C/c2cccc3cccnc23)cc1`, for which the results for the EC50 in the data set “cells [13]” and in the data set “cells [14]” were 15.5 µM (active) and > 350 µM (not active), respectively. Further, in data set [6], the CC50 is 14.7 µM (active). Also, the IC50 at Nonstructural protein 1 is 5.8 µM (active); in “cells [8]” it was 3.44 µM (active). For the same molecule, the AC50 entry on Cytochrome P450 2C9 is “inconclusive”.
On to `COCCn1c(-c2ccccc2Cl)nc2c(c(=O)c3ccccc3n2C)c1=O`, for which the IC50 in the data set “cells [10]” was 14.6 µM (active).
With `c1cncc(-c2cncnc2)c1`, the figures for the IC50 in data set [4] and in [5] were > 100 µM (not active) and > 100 µM (inactive), respectively.
With `Cc1ccc(NC(=O)CSCC(N)=O)cc1C`, the IC50 at Coagulation factor XII was > 50 µM (inactive).
With `O=C(CN(Cc1cccs1)C(=O)CCC(=O)Nc1nccs1)NCc1ccccc1`, at Coagulation factor XII, the IC50 was > 50 µM (inactive).
`O=C(O)c1ccc(/N=C/c2c(O)ccc3ccccc23)cc1`: on Hexokinase HKDC1, the IC50 was 38.1 µM (inactive).
